Patent US20040034078A1 (Agouron Pharmaceuticals, Inc., priority 2002, published 2004)

target: purified PARP protein (Homo sapiens, UniProt P09874); test: PARP Enzyme Inhibition Assay; format: biochemical; conditions: [32P]NAD+ incorporation, 500 μM NAD+, 25° C.; competitive inhibition fit; read-out: Inhibition Constant Ki
Protocol: The PARP enzyme-inhibiting activities of test compounds were assayed as described by Simonin et al. (J. Biol. Chem. (1993), 268:8529-8535) and Marsischky et al. (J. Biol. Chem. (1995), 270:3247-3254) with minor modifications as follows. Samples (50 μL) containing 20 nM purified PARP protein, 10 μg/mL DNAse I-activated calf thymus DNA (sigma), 500 μM NAD^+, 0.5 μCi [^32P]NAD^+, 2% DMSO, and various concentrations of test compounds were incubated in sample buffer (50 mM Tris pH 8.0, 10 mM MgCl2, 1 mM tris(carboxyethyl)phosphine HCl) at 25° C. for 5 minutes. Under these conditions, the reaction rate was linear for times up to 10 minutes. The reaction was stopped by the addition of an equal volume of ice-cold 40% trichloroacetic acid to the samples, which were then incubated on ice for 15 minutes. The samples were then transferred to a Bio-Dot microfiltration apparatus (BioRad), filtered through Whatman GF/C glass-fiber filter paper, washed 3 times with 150 μL of wash buffer (5% trichloroacetic acid, 1% inorganic pyrophosphate), and dried. [^32P]ADP-Ribose incorporation into the acid-insoluble material was quantitated using a PhosphorImager (Molecular Dynamics) and ImageQuant software. Inhibition constants (Ki) were calculated by non-linear regression analyses using the velocity equation for competitive inhibition (Segel, Enzyme Kinetics: Behavior and Analysis of Rapid Equilibrium and Steady-State Enzyme Systems, John Wiley & Sons, Inc., New York (1975), 100-125). In the case of tight-binding inhibitors, 5 nM enzyme was used and the reaction was incubated at 25° C. for 25 minutes. Ki values for tight-binding inhibitors were calculated using the equation described by Sculley et al. (Biochim. Biophys. Acta (11986), 874:44-53).

purified PARP protein, sequence (P09874 whole entry): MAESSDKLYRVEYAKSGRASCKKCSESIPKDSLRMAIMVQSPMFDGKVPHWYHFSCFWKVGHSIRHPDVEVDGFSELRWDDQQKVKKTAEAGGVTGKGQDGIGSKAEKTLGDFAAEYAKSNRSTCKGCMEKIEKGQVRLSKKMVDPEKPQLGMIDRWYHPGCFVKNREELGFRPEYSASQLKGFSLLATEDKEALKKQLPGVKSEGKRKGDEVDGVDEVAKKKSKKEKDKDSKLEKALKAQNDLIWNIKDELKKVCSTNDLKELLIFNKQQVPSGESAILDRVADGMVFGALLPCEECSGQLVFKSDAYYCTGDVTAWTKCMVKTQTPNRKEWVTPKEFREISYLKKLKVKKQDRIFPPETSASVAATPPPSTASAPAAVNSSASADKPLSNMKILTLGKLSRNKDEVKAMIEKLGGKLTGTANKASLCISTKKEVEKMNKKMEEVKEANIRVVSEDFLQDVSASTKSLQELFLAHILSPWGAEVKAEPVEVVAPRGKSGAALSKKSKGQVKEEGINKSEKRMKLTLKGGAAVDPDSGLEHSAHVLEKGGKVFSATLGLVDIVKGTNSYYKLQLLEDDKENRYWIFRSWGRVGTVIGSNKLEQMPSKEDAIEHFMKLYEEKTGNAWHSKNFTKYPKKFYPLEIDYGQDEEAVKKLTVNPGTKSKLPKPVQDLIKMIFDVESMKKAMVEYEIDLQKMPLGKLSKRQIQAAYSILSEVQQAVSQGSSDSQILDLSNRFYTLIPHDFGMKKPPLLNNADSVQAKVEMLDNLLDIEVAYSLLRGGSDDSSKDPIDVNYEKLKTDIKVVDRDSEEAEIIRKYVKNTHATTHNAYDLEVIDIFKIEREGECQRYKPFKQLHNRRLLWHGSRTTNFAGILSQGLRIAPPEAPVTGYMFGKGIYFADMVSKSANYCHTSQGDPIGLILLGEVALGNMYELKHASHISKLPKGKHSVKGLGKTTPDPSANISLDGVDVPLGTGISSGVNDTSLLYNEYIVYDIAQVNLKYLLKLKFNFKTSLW

Row | SMILES | Ki [nM]
1 | NC(=O)c1cccc2[nH]c(N)nc12 [Compound 56, 2-Amino-1H-benzoimidazole-4-carboxylic Acid Amide] | 319 ± 36
2 | CCN(CC)CCNc1nc2c(C(N)=O)cccc2[nH]1 [Compound 59, 2-(2-Diethylamino-ethylamino)-1H-benzoimidazole-4-carboxylic Acid Amide] | 23 ± 4
3 | CSc1nc2c(C(N)=O)cccc2[nH]1 [Compound 52, 2-Methylsulfanyl-3H-benzoimidazolc-4-carboxylic Acid Amide] | 27 ± 4
4 | NC(=O)c1cccc2[nH]c(SCc3ccc([N+](=O)[O-])cc3)nc12 [Compound 44, 2-(4-Nitro-benzylsulfanyl)-1H-benzimidazole-4-carboxylic Acid Amide] | 4.7 ± 0.2
5 | CC(=O)Nc1nnc(SCc2nc3c(C(N)=O)cccc3[nH]2)s1 [Compound 5, 2-(5-Acetylamino-[1,3,4]thiadiazol-2-ylsulfanylmethyl)-1H-benzimidazole-4-carboxylic Acid Amide] | 11 ± 1
6 | CCCCCCCSCc1nc2c(C(N)=O)cccc2[nH]1 [Compound 11, 2-Heptylsulfanylmethyl-1H-benzimidazole-4-carboxylic Acid Amide] | 33 ± 6
7 | COC(=O)Nc1ccc(S(=O)(=O)Cc2nc3c(C(N)=O)cccc3[nH]2)cc1 [Compound 37, [4-(4-Carbamoyl-1H-benzoimidazol-2-ylmethanesulfonyl)-phenyl]-carbamic Acid Methyl Ester] | 28.5 ± 0.5
8 | NC(=O)c1cccc2[nH]c(NCCc3cccs3)nc12 [Compound 60, 2-(2-Thiophen-2-yl-ethylamino)-1H-benzoimidazole-4-carboxylic Acid Amide] | 81 ± 10
9 | NC(=O)c1cccc2[nH]c(CSc3ccc(N)cc3)nc12 [Compound 10, 2-(4-Amino-phenylsulfanylmethyl)-1H-benzimidazole-4-carboxylic Acid Amide] | 17 ± 1
10 | CCC(=O)Nc1ccc(S(=O)(=O)Cc2nc3c(C(N)=O)cccc3[nH]2)cc1 [Compound 36, 2-(4-Propionylamino-benzenesulfonylmethyl)-1H-benzimidazole-4-carboxylic Acid Amide] | 17.8 ± 0.8
11 | NC(=O)c1cccc2[nH]c(CSc3nnc(-c4ccccc4)o3)nc12 [Compound 6, 2-(5-Phenyl-[1,3,4]oxadiazol-2-ylsulfanylmethyl)-1H-benzimidazole-4-carboxylic Acid Amide] | 102
12 | CSc1ccc(SCc2nc3c(C(N)=O)cccc3[nH]2)cc1 [Compound 14, 2-(4-Methylsulfanyl-phenylsulfanylmethyl)-1H-benzimidazole-4-carboxylic Acid Amide] | 11 ± 2
13 | NC(=O)c1cccc2[nH]c(CSc3ccc(O)cc3)nc12 [Compound 4, 2-(4-Hydroxy-phenylsulfanylmethyl)-1H-benzimidazole-4-carboxylic Acid Amide] | 13
14 | NC(=O)c1cccc2[nH]c(CSc3nc4ccccc4s3)nc12 [Compound 2, 2-(Benzothiazol-2-ylsulfanylmethyl)-1H-benzimidazole-4 carboxylic Acid Amide] | 12
15 | NC(=O)c1cccc2[nH]c(CNCCCN3CCCC3)nc12 [Compound 16, 2-[(3-Pyrrolidin-1-yl-propylamino)-methyl]-1H-benzimidazole-4-carboxylic Acid Amide] | 15 ± 3
16 | CCC(=O)Nc1ccc(SCc2nc3c(C(N)=O)cccc3[nH]2)cc1 [Compound 24, 2-(4-Propionylamino-phenylsulfanylmethyl)-1H-benzimidazole-4-carboxylic Acid Amide] | 36 ± 2
17 | NC(=O)c1cccc2[nH]c(CSc3ccc(C(F)(F)F)cc3)nc12 [Compound 13, 2-(4-Trifluoromethyl-phenylsulfanylmethyl)-1H-benzimidazole-4-carboxylic Acid Amide] | 39 ± 5
18 | CNc1nc2c(C(N)=O)cccc2[nH]1 [Compound 55, 2-Methylamino-1H-benzoimidazole-4-carboxylic Acid Amide] | 85 ± 8
